Test: gradient 5% acetonitrile 3 min, to 50% in 2 min, to 85% in 15 min, held 3 min, 100 µL/min
Conditions: column: Zorbax Extend-C18 2.1 x 50 mm; eluents: water / acetonitrile, 0.1% formic acid
Outline: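 Using water and acetonitrile that each contained 0.1% formic acid, mixtures of ~100 pure standards were separated at 100 μL/min on a Zorbax Extend-C18 column (2.1 × 50 mm, 1.8 μm). The HPLC fed a quadrupole time-of-flight mass spectrometer working in positive and negative ionization mode, with dead and dwell volumes of 40 μL and 900 μL. Data were acquired over 3 months. Retention time was read from computationally picked adduct peaks after manual inspection of each.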

Going from CCOc1ccc(-c2noc(N3CCC(C(=O)N4CCCCC4)CC3)n2)cc1OC to CC(NC(=O)C1CCN(c2cc(N3CCCC3)ncn2)CC1)c1ccccc1 (centres undefined), the RP-LC retention time falls from 889 s to 644 s.

Compared with Nc1nc(Nc2ccc(F)cc2)nc2cccc(F)c12, O=C(Nc1ccc(-c2ccn[nH]2)cc1)c1cccnc1 is higher in RP-LC retention time: 627 s for the first, 678 s for the second.

First: CCCNC(=O)NC1CCN(C2=NS(=O)(=O)C(c3ccc(CC)cc3)=C2C)CC1
Second: CCc1ccc2[nH]c3c(c(=O)c2c1)CN(CC(=O)NCc1ccc2c(c1)OCO2)CC3
The RP-LC retention time of the first is higher: 787 s for the first, 624 s for the second.

Going from Cc1csc(-c2ccc(N3CCN(C(=O)c4ccccc4Br)CC3)nc2)n1 to Cc1nn(CC(=O)N2CCN(c3ccccn3)CC2)c(=O)c2c1sc1ccccc12, the RP-LC retention time falls from 884 s to 640 s.

First: CCCOC(=O)c1cnc2nc(C)ccc2c1NCc1ccc(OC)cc1
Second: CCOc1ccc(Cc2nnc(SCC(=O)c3ccc(OC)cc3)o2)cc1
The RP-LC retention time of the first is lower: 750 s for the first, 938 s for the second.

First: COc1ccc(C(=O)N2C(C(=O)NC(C)C)COC23CCN(C(=O)CC(C)(C)C)CC3)cc1 (centres undefined)
Second: COc1ccc(-c2c(C)noc2NC(C)=O)cc1S(=O)(=O)N1CCC2(CC1)OCCO2
The RP-LC retention time of the first is higher: 713 s for the first, 680 s for the second.

First: CC(C)CN(Cc1cccnc1)C1CN(S(=O)(=O)Cc2ccccc2F)C1
Second: O=C(Cc1ccccc1Cl)NCC1CCN(C(=O)c2ccccc2F)CC1
The RP-LC retention time of the first is higher: 734 s for the first, 722 s for the second.

Going from CCn1cc(-c2ccncc2)cc1C(=O)NCc1ccc2c(c1)OCO2 to O=C(Nc1ccc2c(c1)OCO2)C1COCC(=O)N1Cc1ccccc1 (centres undefined), the RP-LC retention time rises from 641 s to 688 s.

First: Cc1nn(C)c(=O)c2cc(S(=O)(=O)NC(C)c3ccccc3)cn12 (centres undefined)
Second: CCCN1CCn2cc(S(=O)(=O)Nc3cccc(C)c3)cc2C1=O
The RP-LC retention time of the first is higher: 801 s for the first, 777 s for the second.

First: N#Cc1ccccc1Cn1cnc2nc3c(cc2c1=O)CCCC3
Second: CCn1nc(C(=O)Nc2nc3c(s2)CCc2ccccc2-3)cc1C
The RP-LC retention time of the first is lower: 733 s for the first, 1060 s for the second.

Compared with CC(C)NC(=O)N(C)CCc1noc(COc2ccc(Cl)cc2)n1, Cc1sc(NC(=O)COc2ccc(Cl)cc2)nc1-c1ccc2c(c1)N(C)C(=O)CO2 is higher in RP-LC retention time: 841 s for the first, 1040 s for the second.

Going from COc1ccc(-c2csc(NC(=O)CCn3c(=O)sc4ccccc43)n2)cc1OC to C=CCN1C(=O)COc2ccc(-c3nc(NC(=O)c4ccccc4)sc3C)cc21, the RP-LC retention time rises from 917 s to 1040 s.

Going from Cn1ncc(NC(=O)Cc2cccc(F)c2)c(N2CCOCC2)c1=O to Cc1oc(-c2[nH]ncc2C(=O)N2CCOCC2)cc1S(=O)(=O)Nc1ccccc1, the RP-LC retention time falls from 722 s to 655 s.

First: CC(C)CC(=O)N1CC(c2nc(-c3ccccc3)no2)C2(CCOCC2)C1 (centres undefined)
Second: CCC(C)NC(=O)N1CC(Oc2ccccc2-c2nc(-c3ccccc3)no2)C1 (centres undefined)
The RP-LC retention time of the first is lower: 896 s for the first, 999 s for the second.

Compared with c1cc(-c2nc(-c3ccc4c(c3)ncn4CCN3CCCCC3)no2)co1, O=C(CCn1nnc2cc(-c3noc(COc4ccccc4)n3)ccc21)N1CCOCC1 is higher in RP-LC retention time: 598 s for the first, 826 s for the second.

Compared with CNCC[C@H](Oc1cccc2ccccc12)c1cccs1, COc1ccc(/C=C/c2ccccc2F)cc1 is higher in RP-LC retention time: 788 s for the first, 1170 s for the second.

First: Cn1ccc(C(=O)N2CCCC2c2ccc(Cl)cc2)n1 (centres undefined)
Second: COc1ccc(C(=O)NC2CCN(c3cc(-c4ccc(Cl)cc4)[nH]n3)C2)cn1 (centres undefined)
The RP-LC retention time of the first is higher: 824 s for the first, 732 s for the second.

First: Cc1cccc(NC(=O)C2CCN(S(=O)(=O)c3cccc4nsnc34)CC2)c1C
Second: Cc1ccccc1S(=O)(=O)N1CCC(CCC(=O)NC2CC2)CC1
The RP-LC retention time of the first is higher: 895 s for the first, 791 s for the second.

First: COC(=O)c1ccc2c(=O)n(-c3ccc4c(c3)OCO4)c(N3CCCCC3)nc2c1
Second: O=C(Cn1c2ccccc2c2ncn(Cc3nc(C4CC4)no3)c(=O)c21)Nc1ccc2c(c1)OCO2
The RP-LC retention time of the first is higher: 1080 s for the first, 823 s for the second.

CCCCN1CCN(Cc2nc3nc(C)cc(N4CCCC4)n3n2)CC1 and CCCN1CCN(C(=O)C2CCN(S(=O)(=O)c3cc(C(=O)N4CCCC4)n(C)c3)CC2)CC1 are the same in RP-LC retention time: 574 s for the first, 574 s for the second.

Going from COc1ccc(-c2nc(C3CC(=O)N(c4ccc(C)cc4)C3)no2)cn1 (centres undefined) to COc1ccc(N2CC(c3nc4ccccc4n3CCN3CCOCC3)CC2=O)cc1 (centres undefined), the RP-LC retention time falls from 946 s to 600 s.

Going from Nc1nccn(Cc2ccc(F)cc2F)c1=O to CCn1cc(-c2nc(CC(=O)Nc3ccc(F)c(Cl)c3)cs2)c2cccnc21, the RP-LC retention time rises from 577 s to 1020 s.

Going from COc1cccc(-c2noc(Cn3cnc4c(nnn4-c4ccccc4OC)c3=O)n2)c1 to COc1ccc(NC(=O)CSc2cc(N3CCN(c4ccccc4OC)CC3)ncn2)cc1, the RP-LC retention time falls from 914 s to 877 s.

Compared with CCc1nnc(-c2ccc(S(=O)(=O)N3CCN(C4CCCCC4)CC3)o2)o1, Cc1cccc(N2CCN(c3ccc4cc(S(=O)(=O)N5CCCCC5)ccc4n3)CC2C)c1 (centres undefined) is higher in RP-LC retention time: 637 s for the first, 1110 s for the second.

Compared with COc1cccc(OC(=O)c2cn(CC(C)C)c(=O)c3ccccc23)c1, Cc1cccc(NC(=O)Cn2nc(N3CCSCC3)c3ccccc3c2=O)c1 is lower in RP-LC retention time: 1210 s for the first, 961 s for the second.

First: Cc1noc(/C=C\c2ccc(S(=O)(=O)N3CCN(c4ccccn4)CC3)cc2)c1NC(=O)C1CC1
Second: Cc1ccc(S(=O)(=O)N2CCCC(C(=O)NCc3c(C)nc4sc(C)nn34)C2)cc1 (centres undefined)
The RP-LC retention time of the first is lower: 661 s for the first, 687 s for the second.

Compared with CCOC(=O)c1c(C)[nH]c(CCC(=O)NC(C)C)c1C, CCCCNC(=O)c1cc(NS(=O)(=O)c2c(C)cc(C)cc2C)cnc1N1CCNCC1 is lower in RP-LC retention time: 729 s for the first, 661 s for the second.

Going from COc1ccc(Cl)c2c(=O)c3c([nH]c12)CCN(CC(=O)NCc1ccc(C)cc1)C3 to CCc1ccccc1NC(=O)N1CCCC(C)(C(=O)NCc2ccc(F)cc2)C1 (centres undefined), the RP-LC retention time rises from 630 s to 864 s.

O=C(NC1CCCC1)c1cccn1Cc1noc(-c2ccccc2)n1 and O=C(NC1CCCCC1)c1nc(Cn2c(=O)oc3ccc(Cl)cc32)no1 are the same in RP-LC retention time: 981 s for the first, 981 s for the second.

Going from Cc1nnc(-c2ccc3ccn(CC(=O)Nc4ccc5c(c4)OCCO5)c3c2)o1 to O=C(Cn1c2ccccc2c2ncn(Cc3nc(C4CC4)no3)c(=O)c21)Nc1ccc2c(c1)OCCO2, the RP-LC retention time rises from 756 s to 808 s.

Going from Clc1ccc(-c2cn3cccnc3n2)cc1 to CCn1cc(CC(=O)Nc2ccc(OC)cc2)c2cccnc21, the RP-LC retention time rises from 662 s to 696 s.

Compared with COC(=O)c1cc(S(=O)(=O)N2CCCC2C(=O)Nc2cccc(C(F)(F)F)c2)cn1C (centres undefined), Cc1cc(NC(=O)C2CCCN(c3ccc(=O)n(-c4ccc(F)cc4)n3)C2)ccc1Br (centres undefined) is lower in RP-LC retention time: 971 s for the first, 899 s for the second.

Compared with Cc1ccc(-n2c(=O)n(C)c(=O)c3cc(C(=O)Nc4ccc(F)cc4)cnc32)cc1, COc1ccc(C(=O)Nc2ccc3c(c2)Sc2ncccc2C(=O)N3C)cn1 is lower in RP-LC retention time: 904 s for the first, 710 s for the second.

First: Cn1nc(-c2nnc(-c3ccc(F)cc3)o2)c2c1CCN(S(=O)(=O)c1ccc3c(c1)CCC3)C2
Second: O=S(=O)(Nc1cnn(-c2ncc(N3CCCC3)cn2)c1)c1ccc2c(c1)CCCC2
The RP-LC retention time of the first is higher: 1290 s for the first, 983 s for the second.

Going from NC(=O)C1CCN(C(=O)Cc2cc(-c3cccs3)on2)CC1 to CCOC(=O)N1CCC(NC(=O)c2csc(-n3cccc3)n2)CC1, the RP-LC retention time rises from 594 s to 760 s.

Compared with CN(C(=O)Cc1ccsc1)C1CCc2nn(C)c(=O)n2CC1 (centres undefined), CC1CCCN(CCCNC(=O)C2CCCN(c3ncnc4c3nc3n4CCCCC3)C2)C1 (centres undefined) is lower in RP-LC retention time: 600 s for the first, 585 s for the second.

Compared with Cc1ccsc1C(=O)N1CC(Oc2cccc(-c3nc(-c4ccccc4)no3)c2)C1, O=C(c1ccc(Br)cc1)N1CCC(n2c(-c3ccco3)nc3cccnc32)C1 (centres undefined) is lower in RP-LC retention time: 1280 s for the first, 827 s for the second.

Going from COc1ccc(C(=O)N2CCN(C(=O)c3nnn4c3COC(c3ccc(F)cc3)C4)CC2)cc1F (centres undefined) to O=C(NCCn1nnc2cc(C(=O)N3CCCC3)ccc21)Nc1ccc(Br)cc1F, the RP-LC retention time falls from 844 s to 742 s.

Going from COc1cc(NC(=O)C2c3ccccc3C(=O)N3CCc4ccccc4C23)cc(OC)c1OC (centres undefined) to COc1cc(OC)cc(C(=O)N2C[C@@H]3C[C@H]2C[C@@H]3NS(=O)(=O)c2ccccc2)c1, the RP-LC retention time rises from 776 s to 792 s.

Compared with CCc1nc2c(NC(=O)c3ccccc3Br)cccn2n1, CCc1nn2c(CNC(=O)c3ccccc3Br)c(-c3ccccc3)nc2s1 is higher in RP-LC retention time: 773 s for the first, 903 s for the second.

First: Cc1ccc(C(=O)NC2(c3nc(C)no3)CCCCC2)cc1
Second: O=C(NCc1ccc(-c2noc(Cc3ccc(F)cc3)n2)s1)C1CC1
The RP-LC retention time of the first is lower: 886 s for the first, 894 s for the second.

Going from Cc1nc(C(N)=O)nc2ccccc12 to Cc1cc(OCC(=O)N(C)c2ccccc2)nc(N2CCN(c3ccccc3)CC2)n1, the RP-LC retention time rises from 657 s to 859 s.

Going from O=C(Nc1ccc(N2CCN(C3CCCCC3)C2=O)nc1)c1ccccc1F to O=C(Nc1ccccc1F)NC1CCN(C(=O)C2CC2)C1 (centres undefined), the RP-LC retention time falls from 850 s to 673 s.

Compared with CCCCC(=O)Nc1ccc2nc(N3CCN(c4cccc(C)c4)CC3)cc(C(=O)O)c2c1, CCc1ccc(C(=O)N2CCC(n3c(-c4ccoc4)nc4cccnc43)C2)cc1 (centres undefined) is higher in RP-LC retention time: 722 s for the first, 809 s for the second.

With CC(=O)N1CCN(C(=O)[C@@]23CCCC[C@H]2N(CCC(C)C)C(=O)CC3)CC1 the RP-LC retention time was 662 s.
